In patent US10988474B2, “Compounds acting at multiple prostaglandin receptors giving a general anti-inflammatory response” (ALLERGAN, INC., priority 2011, dated 2021):

Assays:
Assay type in all cases: cell-based
[1] = target: T1, human prostanoid FP receptor (Homo sapiens, UniProt P43088); assay: FLIPR Ca2+ signaling PG antagonist assay, FP stable cell line; conditions: HEK-293 EBNA cells, human recombinant FP, no exogenous G-protein; standard agonist 17-phenyl-PGF2α
T1 construct: expressed in transfected cells
T1 sequence (P43088 whole entry): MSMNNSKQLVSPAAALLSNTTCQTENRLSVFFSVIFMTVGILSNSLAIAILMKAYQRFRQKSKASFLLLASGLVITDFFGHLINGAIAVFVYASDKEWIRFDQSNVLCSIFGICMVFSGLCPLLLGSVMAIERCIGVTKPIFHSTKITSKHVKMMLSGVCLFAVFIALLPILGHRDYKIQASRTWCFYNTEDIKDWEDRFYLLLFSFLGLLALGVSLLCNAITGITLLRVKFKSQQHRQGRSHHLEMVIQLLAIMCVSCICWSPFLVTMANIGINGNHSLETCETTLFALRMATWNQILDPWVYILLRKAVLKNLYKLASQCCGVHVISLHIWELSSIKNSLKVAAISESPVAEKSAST
Summary of the method: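 Stable HEK-293 EBNA lines (DP1 with chimeric Gqs, EP3 with Gqi, EP1 and FP without exogenous G protein) were Fluo-4AM-loaded and pretreated 4.5 min at 37 °C with compound (0.1–30 μM). Agonist (BW 245C for DP1, PGE2 for EP1/EP3, 17-phenyl-PGF2α for FP) was then added at 10^−11–10^−5 M. Peak Ca2+ fluorescence was taken relative to agonist at 10^−6 M.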

[2] = target: T2, human prostanoid EP2 receptor (Homo sapiens, UniProt P43116); assay: FLIPR Ca2+ signaling PG antagonist assay, EP2 stable cell line; conditions: HEK-293 EBNA cells, human recombinant EP2 with chimeric Gqs; standard agonist PGE2
T2 construct: expressed in transfected cells
T2 sequence (P43116 whole entry): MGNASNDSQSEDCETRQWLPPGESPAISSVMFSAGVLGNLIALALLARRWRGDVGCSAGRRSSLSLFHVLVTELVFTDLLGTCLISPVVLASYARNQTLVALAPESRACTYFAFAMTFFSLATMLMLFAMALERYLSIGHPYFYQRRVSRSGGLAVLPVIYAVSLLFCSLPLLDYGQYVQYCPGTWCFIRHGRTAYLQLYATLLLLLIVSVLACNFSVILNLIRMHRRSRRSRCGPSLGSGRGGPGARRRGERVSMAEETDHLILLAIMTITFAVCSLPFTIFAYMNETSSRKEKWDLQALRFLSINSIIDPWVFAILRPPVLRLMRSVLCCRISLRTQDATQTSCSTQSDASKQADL
Description: (§1) The above compounds were tested for PG antagonist activity as follows using human recombinant prostanoid receptor (DP1, EP1-4, FP, IP and TP) stable cell lines: In order to measure the response of Gs and Gi coupled prostanoid receptors as a Ca^2+ signal, chimeric G protein cDNAs were used. Stable cell lines over-expressing human prostanoid DP1, EP1-4, FP, IP, and TP receptors were established as follows:
(§2) Briefly, human prostanoid DP1, EP2, and EP4 receptor cDNAs were co-transfected with chimeric Gqs cDNA containing a haemagglutanin (HA) epitope; human prostanoid EP3 receptors were co-transfected with chimeric Gqi-HA; human EP1, FP, IP, and TP receptor cDNAs were expressed with no exogenous G-proteins. Gqs and Gqi chimeric cDNAs (Molecular Devices, Sunnyvale, Calif., U.S.A.), as well as cDNAs of prostanoid receptors, were cloned into a pCEP4 vector with a hygromycin B selection marker. Transfection into HEK-293 EBNA (Epstein-Barr virus nuclear antigen) cells was achieved by the FuGENE 6 transfection Reagent (Roche Applied Science, Indianapolis, Ind., USA). Stable transfectants were selected according to hygromycin resistance. Because Gqs and Gqi contained an HA epitope, G-protein expression was detected by Western blotting analysis using anti-mouse HA monoclonal antibody and horseradish peroxidase (HRP)-conjugated secondary antibody, while functional expression of prostanoid receptors was detected by FLIPR screening (Matias et al., 2004). These stable cell lines were validated using previously published antagonists at 10 μM against serial dilutions of standard agonists by FLIPR functional assays for Ca^2+ Signaling (as described below).
(§3) Ca^2+ signaling studies were performed using a FLIPR TETRA system (Molecular Devices, Sunnyvale, Calif., USA) in the 384-format. This is a high-throughput instrument for cell-based assays to monitor Ca^2+ signaling associated with GPCRs and ion channels. Cells were seeded at a density of 5×10^4 cells/well in BioCoat poly-D-lysine coated, black wall, clear bottom 384-well plates (BD Biosciences, Franklin lakes, NJ, USA) and allowed to attach overnight in an incubator at 37° C. The cells were then washed twice with HBSS-HEPES buffer (Hanks' balanced salt solution without bicarbonate and phenol red, 20 mM HEPES, pH 7.4) using an ELx405 Select CW Microplate Washer (BioTek, Winooski, Vt., USA). After 60 min of dye-loading in the dark using the Ca^2+-sensitive dye Fluo-4AM (Invitrogen, Carlsbad, Calif., USA), at a final concentration of 2×10^−6M, the plates were washed 4 times with HBSS-HEPES buffer to remove excess dye and leaving 50 μl of buffer in each well. The plates were then placed in the FLIPR TETRA instrument and allowed to equilibrate at 37° C. Compounds were added in a 25 μl volume to each well to give final concentrations of 0.1 μM, 0.3 μM, 1 μM, 3 μM, 10 μM, and 30 μM; or 0.067 μM, 0.1 μM, 0.2 μM, 0.3 μM, 0.67 μM, and 1 μM for cells over-expressing TP receptors. After 4.5 minutes, a 7-point serial dilution of the standard agonist for the corresponding receptor, in a 25 μl volume was injected at the final concentrations from 10^−11M to 10^−5M in 10-fold serial dilution increments for cells expressing human recombinant DP1, EP1, EP2, EP3, EP4, FP, and IP receptors. The dose range for the standard agonist for human recombinant TP receptors was from 10^−12M to 10^−6M. HBSS-HEPES buffer was used as the negative control for the standard agonists. Cells were excited with LED (light emitting diode) excitation at 470-495 nm and emission was measured through an emission filter at 515-575 nm. Assay plates were read for 3.5 minutes using the FLIPR^TETRA. The peak increase in fluorescence intensity was recorded for each well. On each plate, negative controls, dose response of positive controls, and co-treatments of antagonist-agonist for each dose were in triplicates. Standard agonists were as follows: DP=BW 245C, EP1-EP4=PGE2, FP=17-phenyl-PGF2α, IP=Cicaprost, and TP=U-46619. […]

[3] = target: T3, human prostanoid EP1 receptor (Homo sapiens, UniProt P34995); assay: FLIPR Ca2+ signaling PG antagonist assay, EP1 stable cell line; conditions: HEK-293 EBNA cells, human recombinant EP1, no exogenous G-protein; standard agonist PGE2
T3 construct: expressed in transfected cells
T3 sequence (P34995 1-402): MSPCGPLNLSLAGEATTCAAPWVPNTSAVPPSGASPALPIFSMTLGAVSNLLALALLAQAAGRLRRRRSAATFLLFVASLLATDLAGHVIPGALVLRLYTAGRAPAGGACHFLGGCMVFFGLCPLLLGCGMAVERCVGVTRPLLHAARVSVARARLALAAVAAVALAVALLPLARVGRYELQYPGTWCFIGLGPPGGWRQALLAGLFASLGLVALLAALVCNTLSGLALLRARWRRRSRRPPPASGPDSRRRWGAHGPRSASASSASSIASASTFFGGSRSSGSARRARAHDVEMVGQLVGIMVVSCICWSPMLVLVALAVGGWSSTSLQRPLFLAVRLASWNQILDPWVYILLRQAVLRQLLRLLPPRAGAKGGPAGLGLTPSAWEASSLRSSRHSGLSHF
Description: as §1, §2, §3

[4] = target: T4, human prostanoid TP receptor (Homo sapiens, UniProt P21731); assay: FLIPR Ca2+ signaling PG antagonist assay, TP stable cell line; conditions: HEK-293 EBNA cells, human recombinant TP, no exogenous G-protein; standard agonist U-46619
T4 construct: expressed in transfected cells
T4 sequence (P21731 1-343): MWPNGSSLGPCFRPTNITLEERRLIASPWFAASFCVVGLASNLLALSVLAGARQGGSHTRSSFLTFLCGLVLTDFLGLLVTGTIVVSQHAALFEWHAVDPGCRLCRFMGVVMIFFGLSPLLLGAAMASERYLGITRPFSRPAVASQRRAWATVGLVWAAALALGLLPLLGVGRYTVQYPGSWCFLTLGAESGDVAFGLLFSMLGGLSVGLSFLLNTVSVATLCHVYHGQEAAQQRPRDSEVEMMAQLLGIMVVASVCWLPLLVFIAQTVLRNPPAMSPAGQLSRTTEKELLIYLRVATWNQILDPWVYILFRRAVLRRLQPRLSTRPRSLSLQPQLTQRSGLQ
Summary of the method: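 HEK-293 EBNA stable lines; EP2 co-expressed with chimeric Gqs, EP1/IP/TP with no exogenous G protein. Fluo-4AM-loaded cells pretreated 4.5 min at 37 °C with compound (0.1–30 μM; TP 0.067–1 μM), then standard agonist (PGE2, cicaprost, U-46619) 10^−11–10^−5 M (TP 10^−12–10^−6 M); peak fluorescence read 3.5 min, nonlinear regression.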

Compound | Kb [1] [nM] | Kb [2] [µM] | Kb [3] [nM] | Kb [4] [nM] | FP (Kb, PG antagonist activity) [1]
CC(C)COc1ccc(OCC(F)F)cc1Cn1ncc2cc(C(=O)O)ccc21 [Example 55, 1-[5-(2,2-Difluoro-Ethoxy)-2-Isobutoxy-Benzyl]-1H-Indazole-5-Carboxylic Acid] | 40 | ≥ 10 | 40 | 300 | –
CCC(CC)COc1ccc(Cl)cc1Cn1ncc2ccc(C(=O)O)cc21 [Example 6] | 2400 | ≥ 10 | ≥ 10000 | 150 | –
O=C(O)c1ccc2c(cnn2Cc2cc(C(F)(F)F)ccc2OCC2CCCC2)c1 [Example 33, 1-(2-Cyclopentylmethoxy-5-Trifluoromethyl-Benzyl)-1H-Indazole-5-Carboxylic Acid] | 70 | 2.6 | 70 | 1 | –
O=C(O)c1ccc2cnn(Cc3cc(Br)ccc3OCC3CCCC3)c2c1 [Example 44, 1-(5-Bromo-2-Cyclopentylmethoxy-Benzyl)-1H-Indazole-6-Carboxylic Acid] | 1400 | ≥ 10 | 240 | 1 | –
CCC(CC)COc1ccc(Br)cc1Cn1c(C)cc2cc(C(=O)O)ccc21 [Example 68, 1-[5-Bromo-2-(2-Ethyl-Butoxy)-Benzyl]-2-Methyl-1H-Indole-5-Carboxylic Acid] | ≥ 10000 | ≥ 10 | ≥ 10000 | ≥ 10000 | –
CC(C)COc1ccc(Br)cc1Cn1ncc2cc(C(=O)O)ccc21 [Example 4] | 20 | 1.8 | 6 | 2 | –
CCc1nn(Cc2cc(Br)ccc2OCC(CC)CC)c2ccc(C(=O)O)cc12 [Example 65, 1-[5-Bromo-2-(2-Ethyl-Butoxy)-Benzyl]-3-Ethyl-1H-Indazole-5-Carboxylic Acid] | – | 6.5 | 40 | 52 | PAg
CC(C)COc1ccc(OC(F)(F)F)cc1Cn1ccc2cc(C(=O)O)cnc21 [Example 74, 1-(2-Isobutoxy-5-Trifluoromethoxy-Benzyl)-1H-Pyrrolo[2,3-B]Pyridine-5-Carboxylic Acid] | 660 | ≥ 10 | 60 | 20 | –
CCC(CC)COc1ccc(Br)cc1Cn1ccc2cc(C(=O)O)ccc21 [Example 69, 1-[5-Bromo-2-(2-Ethyl-Butoxy)-Benzyl]-1H-Indole-5-Carboxylic Acid] | 800 | ≥ 10 | 250 | 550 | –
CC(C)COc1ccc(Br)cc1Cn1ncc2c(C(=O)O)cccc21 [Example 7, 1-(5-Bromo-2-Isobutoxy-Benzyl)-1H-Indazole-4-Carboxylic Acid] | 300 | 4.4 | 45 | 20 | –
CCC(CC)COc1ccc(Cl)cc1Cn1cc2c(C(=O)O)cccc2n1 [Example 39, 2-[5-Chloro-2-(2-Ethyl-Butoxy)-Benzyl]-2H-Indazole-4-Carboxylic Acid] | ≥ 10000 | ≥ 10 | 1200 | 110 | –
CC(C)COc1ccc(S(C)(=O)=O)cc1Cn1ncc2cc(C(=O)O)ccc21 [Example 48, 1-(2-Isobutoxy-5-Methanesulfonyl-Benzyl)-1H-Indazole-5-Carboxylic Acid] | ≥ 10000 | ≥ 10 | 260 | 500 | –
O=C(O)c1ccc2c(cnn2Cc2cc(Br)ccc2OCc2ccc(Cl)cc2)c1 [Example 13, 1-[5-Bromo-2-(4-Chloro-Benzyloxy)-Benzyl]-1H-Indazole-5-Carboxylic Acid] | 20 | 1.9 | 50 | 900 | –
Cc1nn(Cc2cc(Br)ccc2OCC(C)C)c2ccc(C(=O)O)cc12 [Example 21, 1-(5-Bromo-2-Isobutoxy-Benzyl)-3-Methyl-1H-Indazole-5-Carboxylic Acid] | 30 | 3.5 | 14 | 13 | –
